The test system of one assay is 5XFAD mice. The assay is described as follows: Weekly intravenous or intranasal cyclic RGD (Cilengitide) administration to 5XFAD mice: microglial proinflammatory responses. Format: in vivo, mouse. The note with it: vs saline. The method, then:
(A) Schematic outline of cyclic RGD (Cilengitide) administration. Weekly intravenous injection (25 mg/kg) or intranasal delivery (10 mg/kg) of Cilengitide or vehicle control (saline) into 5XFAD mice starting at 6-mo of age for 1 or 2 months. Microglial proinflammatory responses were analyzed after 1-mo or 2-mo treatment. […] IV injection of Cilengitide for 1 month reduced the percentage of CD11c^+ microglia by 50% and decreased CD11c^+ microglial TNF-α production by ˜50% in 5XFAD mice (n=3). […]. […] IV injection of Cilengitide for 2 months reduced the percentage of CD11c+ microglia by 60% and decreased CD11c+ microglial TNF-α production by 55% in 5XFAD mice compared with vehicle (saline) treated control mice (n=3). *p<0.05, **p<0.01, ***p<0.001.
Weekly administration of cyclic RGD (Cilengitide) was given intravenously or intranasally to 6-mo old mice, continuing for 1 or 2 months. Microglial proinflammatory responses and Aβ plaque pathology were analyzed after 1-mo or 2-mo of treatment (FIG. 43A).

The subject of assay [1] is CD11c^+ microglia of 9-mo old 5XFAD and OPN-KO.5XFAD mice. The assay is described as follows: In vitro analysis of OPN-dependent inhibition of TREM2-lysosomal phagocytic pathway and Aβ degradation. The note with it: rmOPN 12.5 μg/ml, anti-OPN Ab 10 μg/ml. Format: cell-based, mouse. The method, then:
(a) Protocol of in vitro analysis of OPN-dependent inhibition of TREM2-lysosomal phagocytic pathway in 9-mo old 5XFAD and OPN-KO.5XFAD mice. […] (d) The MFI of FAM-Aβ 1-42 after 1 h's incubation was determined by flow cytometry in lysosomes of CD11c^+ microglia (CD11c^+CD68^+) and defined as Aβ MFI1h. MFI of retained FAM-Aβ in lysosomes of CD11c^+ microglia (CD11c^+CD68^+) 24 h after FAM-Aβ1-42 withdrawal was determined and defined as Aβ MFI24h. […] All data are presented as mean±s.e.m.
To test the impact of OPN on TREM2-lysosome activation and AR degradation, microglia enriched by anti-CD11b microbeads (purity >95%, Miltenyi) from 9-mo old 5XFAD and OPN-KO.5XFAD mice were seeded into 12-well plates at 3×10^5 cells/well in conventional microglia culture medium (DMEM-F12 with 10% fetal bovine serum+10% penicillin/streptomycin+10 ng/ml recombinant mouse M-CSF). Microglia were then pre-incubated with anti-OPN Ab (10 μg/ml) for 1 h followed by the incubation with rmOPN ([…]) overnight. Then FAM-labeled Aβ1-42 peptide (1 μM) was added into culture for 1 h. Mean fluorescence intensity (MFI) of FAM-Aβ1-42 in lysosomes of CD11c^+ microglia (CD11c^+CD68^+) after 1 h's incubation was determined by flow cytometry and defined as Aβ MFI1h. FAM-Aβ1-42 was then withdrawn, and cells were cultured for 24 h in the presence or absence with anti-OPN Ab (10 μg/ml) and/or rmOPN (12.5 μg/ml) before analysis of CD11c^+ microglial expression of TREM2, CD68 and MFI of retained FAM-Aβ1-42 in CD11c^+CD68^+ microglia (defined as Aβ MFI24h) by flow cytometry. Aβ degradation rate was calculated as (Aβ MFI1h−Aβ MFI24h)/Aβ MFI1h.

Setting [2] is: intranasal 10 mg/kg weekly, 1 month.
[3] abbreviates: intranasal 10 mg/kg weekly, 2 months.

“Also recorded” adds a separate entry of the source.

In the case of `CC(C)[C@H]1C(=O)N[C@@H](CCCN=C(N)N)C(=O)NCC(=O)N[C@@H](CC(=O)O)C(=O)N[C@H](Cc2ccccc2)C(=O)N1C` [Cilengitide], in the assay with 5XFAD mice (IV 25 mg/kg weekly, 1 month), the “decrease of CD11c^+ microglial TNF-α production” value is approximately 50% and the “reduction of percentage of CD11c^+ microglia” value is 50%. Further, in the assay with 5XFAD mice (IV 25 mg/kg weekly, 2 months), the “decrease of CD11c+ microglial TNF-α production” value is 55% and the “reduction of percentage of CD11c+ microglia” value stood at 60%. Further, in the assay with 5XFAD mice (setting [2]), the “CD11c^+ microglia (in words)” value was “decrease; also recorded: decreased tendency” and the “reduction of TNF-α production by CD11c^+ microglia” value is approximately 35%. For the same compound, in the assay on 5XFAD mice (setting [3]), the “decrease of percentage of CD11c+ microglia” value came to 35% and the “reduction of TNF-α expression by CD11c+ microglia” value is approximately 45%.
Consider “rmOPN: recombinant mouse OPN (osteopontin)”, for which the “Aβ degradation rate [(Aβ MFI1h−Aβ MFI24h)/Aβ MFI1h] in lysosomes of CD11c^+ microglia” value in assay [1] (FAM-Aβ1-42 1 μM) was “substantial reduction of Aβ degradation; also recorded: significantly reduced the Aβ degradation rate”. In assay [1] (OPN-KO.5XFAD microglia), the “CD68 expression in CD11c^+ microglia” value is “reduced expression of CD68; also recorded: significantly reduced” and the “TREM2 expression in CD11c^+ microglia” value was “sharply inhibited; also recorded: sharply reduced”.

The values above are taken from patent publication US20250381277A1, “COMPOSITIONS AND METHODS FOR TREATMENT OF NEUROLOGICAL DISORDERS” (Dana-Farber Cancer Institute, Inc., priority 2022, published 2025).
